Values after ≈ are worked out from the molar mass of the structure shown.
Assays:
Assay in all cases: ≥ marks a high value that may be exact or a test limit, other limits are often not marked, values filed in µg/mL are converted to µM
Escherichia coli = test system: Escherichia coli
Pseudomonas aeruginosa = test system: Pseudomonas aeruginosa
Staphylococcus aureus = test system: Staphylococcus aureus
[1] = test system: Escherichia coli ATCC 25922
[2] = test system: Staphylococcus aureus ATCC 29213
Bacillus cereus = test system: Bacillus cereus
[3] = test system: Candida albicans ATCC 90028
[4] = test system: Pseudomonas aeruginosa ATCC 27853
[5] = test system: Enterococcus faecalis ATCC 29212

| Compound | MIC [1] [µM] | MIC [2] [µM] | MIC [3] [µM] | also measured |
| --- | --- | --- | --- | --- |
| CC[C@H](C)[C@H](NC(=O)CN)C(=O)NCC(=O)N[C@@H](CCCCN)C(=O)N[C@@H](Cc1ccccc1)C(=O)N[C@H](C(=O)N[C@@H](Cc1cnc[nH]1)C(=O)N[C@@H](CO)C(=O)N[C@@H](C)C(=O)N[C@@H](CCCCN)C(=O)N[C@@H](CCCCN)C(=O)N[C@@H](Cc1ccccc1)C(=O)NCC(=O)N[C@@H](CCCCN)C(=O)N[C@@H](CC(C)C)C(=O)N[C@@H](Cc1ccccc1)C(=O)N[C@H](C(=O)NCC(=O)N[C@@H](CCC(=O)O)C(=O)N[C@H](C(=O)N[C@@H](CCSC)C(=O)N[C@@H](CC(N)=O)C(=O)N[C@@H](CO)C(N)=O)[C@@H](C)CC)C(C)C)[C@@H](C)CC [GIGKFIHSAKKFGKLFVGEIMNS] | – | – | – | MIC (Escherichia coli): 26.9 µM (≈ 67.4 µg/mL); MIC (Pseudomonas aeruginosa): 76 µM (≈ 191 µg/mL); MIC (Staphylococcus aureus): 38 µM (≈ 95.3 µg/mL) |
| CC(=O)N[C@@H](CC(C)C)C(=O)N[C@@H](CCCCN)C(=O)N[C@@H](CCCCN)C(=O)N[C@@H](CC(C)C)C(=O)N[C@@H](CC(C)C)C(=O)N[C@@H](CCCCN)C(=O)N[C@@H](CC(C)C)C(=O)N[C@@H](CC(C)C)C(=O)N1CCC[C@H]1C(=O)N[C@@H](CCCCN)C(=O)N[C@@H](CC(C)C)C(=O)N[C@@H](CC(C)C)C(=O)N[C@@H](CCCCN)C(=O)N[C@@H](CC(C)C)C(N)=O [LKKLLKLLPKLLKL] | 5 (≈ 8.51 µg/mL) | 2.5 (≈ 4.26 µg/mL) | – | – |
| CC(C)[C@H](N)C(=O)N[C@H](C(=O)N[C@@H](Cc1ccccc1)C(=O)N[C@@H](CCCN=C(N)N)C(=O)N[C@H](C(=O)N[C@@H](C)C(=O)N[C@@H](CO)C(=O)N[C@@H](CCCCN)C(=O)N[C@H](C(=O)N[C@@H](Cc1ccccc1)C(=O)N1CCC[C@H]1C(=O)N[C@@H](C)C(=O)N[C@H](C(=O)N[C@@H](Cc1ccc(O)cc1)C(=O)N[C@@H](CS)C(=O)N[C@H](C(=O)N[C@H](C(=O)N[C@@H](CO)C(=O)N[C@@H](CCCCN)C(=O)N[C@@H](CCCCN)C(=O)O)C(C)C)[C@@H](C)O)C(C)C)C(C)C)C(C)C)C(C)C [VVFRVASKVFPAVYCTVSKK] | – | – | – | MIC (Bacillus cereus): ≥ 115 µM; MIC (Escherichia coli): 57.4 µM (≈ 128 µg/mL) |
| CC[C@H](C)[C@H](NC(=O)[C@H](CCCN=C(N)N)NC(=O)[C@H](CCC(N)=O)NC(=O)[C@@H](NC(=O)[C@H](CCCCN)NC(=O)[C@H](CCCN=C(N)N)NC(=O)[C@@H](N)CCCCN)C(C)C)C(=O)N[C@@H](CCCCN)C(=O)N[C@@H](CC(=O)O)C(=O)N[C@@H](Cc1ccccc1)C(=O)N[C@@H](CC(C)C)C(=O)N[C@@H](CCCN=C(N)N)C(=O)O [KRKVQRIKDFLR] | 1.25 (≈ 1.98 µg/mL) | 10 (≈ 15.9 µg/mL) | 20 (≈ 31.7 µg/mL) | MIC [4]: 2.5 µM (≈ 3.97 µg/mL) |
| CC[C@H](C)[C@H](NC(=O)CN)C(=O)N[C@@H](C)C(=O)N[C@@H](CCCCN)C(=O)N[C@@H](Cc1ccccc1)C(=O)NCC(=O)N[C@@H](CCCCN)C(=O)N[C@@H](C)C(=O)N[C@@H](C)C(=O)N[C@@H](C)C(=O)N[C@@H](Cc1cnc[nH]1)C(=O)N[C@@H](Cc1ccccc1)C(=O)NCC(=O)N[C@@H](CCCCN)C(=O)N[C@@H](CCCCN)C(=O)N[C@@H](Cc1c[nH]c2ccccc12)C(=O)N[C@H](C(=O)NCC(=O)N[C@@H](CCC(=O)O)C(=O)N[C@@H](CC(C)C)C(=O)N[C@@H](CCSC)C(=O)N[C@@H](CC(N)=O)C(=O)N[C@@H](CO)C(N)=O)C(C)C [GIAKFGKAAAHFGKKWVGELMNS] | – | – | – | MIC (Escherichia coli): 75 µM (≈ 184 µg/mL); MIC (Pseudomonas aeruginosa): > 75 µM; MIC (Staphylococcus aureus): > 75 µM |
| CC(=O)N[C@@H](CCCCN)C(=O)N[C@@H](CC(C)C)C(=O)N[C@@H](CC(C)C)C(=O)N[C@@H](CCCCN)C(=O)N[C@@H](CC(C)C)C(=O)N[C@@H](CC(C)C)C(=O)N[C@@H](CCCCN)C(=O)N[C@@H](CCCCN)C(=O)N1CCC[C@H]1C(=O)N[C@@H](CC(C)C)C(=O)N[C@@H](CCCCN)C(=O)N[C@@H](CC(C)C)C(=O)N[C@@H](CC(C)C)C(=O)N[C@@H](CCCCN)C(N)=O [KLLKLLKKPLKLLK] | > 80 | > 80 | – | – |
| CC[C@H](C)[C@H](NC(=O)[C@H](Cc1ccccc1)NC(=O)[C@H](CO)NC(=O)[C@H](CCCCN)NC(=O)[C@H](Cc1c[nH]c2ccccc12)NC(=O)[C@@H](N)CCCCN)C(=O)N[C@@H](CCCCN)C(=O)N[C@@H](CCCCN)C(=O)N[C@@H](CO)C(=O)N[C@H](C(=O)N[C@@H](CO)C(=O)N[C@@H](CCCCN)C(=O)N[C@@H](Cc1ccccc1)C(=O)N[C@@H](CC(C)C)C(=O)N[C@@H](Cc1cnc[nH]1)C(=O)N[C@@H](CO)C(=O)N[C@@H](C)C(=O)N[C@@H](CCCCN)C(=O)N[C@@H](CCCCN)C(=O)N[C@@H](Cc1ccccc1)C(N)=O)[C@@H](C)O [KWKSFIKKSTSKFLHSAKKF] | – | – | – | MIC (Pseudomonas aeruginosa): 20.6 µM (≈ 50 µg/mL) |
| CC[C@H](C)[C@H](NC(=O)[C@H](CCCN=C(N)N)NC(=O)[C@H](CCC(N)=O)NC(=O)[C@@H](NC(=O)[C@@H](NC(=O)[C@H](CCCN=C(N)N)NC(=O)[C@@H](N)CCCCN)[C@@H](C)CC)C(C)C)C(=O)N[C@@H](CCCCN)C(=O)N[C@@H](C)C(=O)N[C@@H](Cc1ccccc1)C(=O)N[C@@H](CC(C)C)C(=O)N[C@@H](CCCN=C(N)N)C(=O)O [KRIVQRIKAFLR] | 1.25 (≈ 1.91 µg/mL) | 2.5 (≈ 3.82 µg/mL) | 5 (≈ 7.64 µg/mL) | MIC [4]: 1.25 µM (≈ 1.91 µg/mL) |

Second part, led by results:

| MIC [1] [µM] | MIC [2] [µM] | MIC [3] [µM] | Compound | also measured |
| --- | --- | --- | --- | --- |
| 23 (≈ 65.8 µg/mL) | – | ≥ 130 | CC[C@H](C)[C@H](NC(=O)CN)C(=O)N[C@@H](CCSC)C(=O)N[C@@H](CC(=O)O)C(=O)N[C@H](C(=O)N[C@H](C(=O)N[C@@H](CCCCN)C(=O)N[C@@H](CC(N)=O)C(=O)N[C@@H](C)C(=O)N[C@@H](C)C(=O)N[C@@H](CCCCN)C(=O)N[C@@H](CC(=O)O)C(=O)N[C@@H](CC(C)C)C(=O)N[C@@H](C)C(=O)NCC(=O)N[C@@H](CCC(N)=O)C(=O)N[C@@H](CC(C)C)C(=O)N[C@@H](CC(=O)O)C(=O)N[C@@H](CCCCN)C(=O)N[C@@H](CC(C)C)C(=O)N[C@@H](CCCCN)C(=O)N[C@H]1CSSC[C@@H](C(=O)O)NC(=O)CNC(=O)[C@H]([C@@H](C)O)NC(=O)[C@H]([C@@H](C)CC)NC(=O)[C@H](CCCN=C(N)N)NC1=O)C(C)C)[C@@H](C)O [GIMDTVKNAAKDLAGQLDKLKCRITGC] | – |
| 20 (≈ 31.7 µg/mL) | 40 (≈ 63.5 µg/mL) | ≥ 40 | CC[C@H](C)[C@H](NC(=O)[C@H](CCCN=C(N)N)NC(=O)[C@@H](N)CCCCN)C(=O)N[C@H](C(=O)N[C@@H](CCC(N)=O)C(=O)N[C@@H](CCCN=C(N)N)C(=O)N[C@@H](CCCCN)C(=O)N[C@@H](CCCCN)C(=O)N[C@@H](CC(=O)O)C(=O)N[C@@H](Cc1ccccc1)C(=O)N[C@@H](CC(C)C)C(=O)N[C@@H](CCCN=C(N)N)C(=O)O)C(C)C [KRIVQRKKDFLR] | MIC [4]: 40 µM (≈ 63.5 µg/mL) |
| 34.2 (≈ 50.1 µg/mL) | – | – | CSCC[C@H](NC(=O)[C@H](CCCN=C(N)N)NC(=O)[C@H](Cc1c[nH]c2ccccc12)NC(=O)[C@H](CCC(N)=O)NC(=O)[C@H](Cc1c[nH]c2ccccc12)NC(=O)[C@H](CCCN=C(N)N)NC(=O)[C@H](CCCN=C(N)N)NC(=O)[C@H](C)NC(=O)[C@H](CCCCN)NC(=O)[C@@H](N)Cc1ccccc1)C(=O)O [FKARRWQWRM] | MIC [5]: 68.4 µM (≈ 100 µg/mL) |
| 5 (≈ 8.59 µg/mL) | 10 (≈ 17.2 µg/mL) | – | CC(=O)N[C@@H](CC(C)C)C(=O)N[C@@H](CCCCN)C(=O)N[C@@H](CCCCN)C(=O)N[C@@H](CC(C)C)C(=O)N[C@@H](CC(C)C)C(=O)N[C@@H](CCCCN)C(=O)N[C@@H](CC(C)C)C(=O)N[C@@H](CC(C)C)C(=O)N[C@@H](CCCCN)C(=O)N[C@@H](CCCCN)C(=O)N[C@@H](CC(C)C)C(=O)N1CCC[C@H]1C(=O)N[C@@H](CCCCN)C(=O)N[C@@H](CC(C)C)C(N)=O [LKKLLKLLKKLPKL] | – |

— DBAASP
